These results are taken from ChEMBL document CHEMBL1148601, “Inhibition of cytosolic phospholipase A2alpha: hit to lead optimization” (J Med Chem, 2006).

Data set [1] in a line: Inhibition of TXB2 production in Sprague-Dawley rat whole blood. The format is functional, tissue-based.
Data set [2] in a line: Inhibition of PGF2-alpha production in the presence of exogenous arachidonic acid in MC9 cell at 1.5 uM. The format is functional. The conditions noted are these: Mus musculus.
The nature of data set [3]: Oral bioavailability in rat. The format is ADME, organism-based. The conditions noted are these: in vivo.
The nature of data set [4]: Inhibition of LTB4 production in human whole blood. It counts as functional, tissue-based.
The target in data set [5] is T1, Cytosolic phospholipase A2 (Homo sapiens, UniProt P47712).
T1 sequence (P47712 whole entry): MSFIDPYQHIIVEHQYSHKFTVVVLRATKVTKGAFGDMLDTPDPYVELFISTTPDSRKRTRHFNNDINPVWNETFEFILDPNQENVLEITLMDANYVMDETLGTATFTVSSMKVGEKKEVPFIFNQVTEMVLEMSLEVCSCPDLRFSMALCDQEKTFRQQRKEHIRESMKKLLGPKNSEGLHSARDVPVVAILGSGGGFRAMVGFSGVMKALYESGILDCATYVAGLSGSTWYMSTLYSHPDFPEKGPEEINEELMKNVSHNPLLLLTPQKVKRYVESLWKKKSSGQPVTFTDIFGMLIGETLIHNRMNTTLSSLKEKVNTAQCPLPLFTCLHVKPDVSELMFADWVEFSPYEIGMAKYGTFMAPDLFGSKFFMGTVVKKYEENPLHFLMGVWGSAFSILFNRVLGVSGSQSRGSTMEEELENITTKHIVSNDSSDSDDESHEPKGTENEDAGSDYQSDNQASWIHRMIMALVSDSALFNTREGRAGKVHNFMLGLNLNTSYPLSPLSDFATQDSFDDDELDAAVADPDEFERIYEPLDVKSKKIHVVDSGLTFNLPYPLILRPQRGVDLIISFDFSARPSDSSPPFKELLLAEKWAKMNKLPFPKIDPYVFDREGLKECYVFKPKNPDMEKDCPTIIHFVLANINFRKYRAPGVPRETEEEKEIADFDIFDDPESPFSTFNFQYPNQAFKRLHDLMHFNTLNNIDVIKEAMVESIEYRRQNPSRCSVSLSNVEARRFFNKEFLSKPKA
The data set is described as follows: Inhibition of cytosolic phospholipase A2-alpha in GLU micelle assay.

Data set [6] in a line: Inhibition of TXB2 production in human whole blood. The format is functional, tissue-based.
Data set [7] is described as follows: Inhibition of PGF2-alpha production in MC9 cells at 1.5 uM. The format is functional. The conditions noted are these: Mus musculus.
Data set [8] is described as follows: Inhibition of LTB4 production in MC9 cells at 1.5 uM. The format is functional. The conditions noted are these: Mus musculus.
Data set [9] in a line: Plasma concentration in rat. It counts as ADME, organism-based.
The nature of data set [10]: Inhibition of TXB2 production in Sprague-Dawley rat whole blood at 10 uM. The format is functional, tissue-based.

What is called IC50 is the point on the concentration scale where inhibition reaches its midpoint. The term inhibition denotes the drop in the measured response relative to a control, in per cent. Usually bioavailability stands for the share of a dose that reaches the circulation, judged against a reference dose that is usually intravenous. The low end stands for little systemic uptake, the high end for much systemic uptake. As usually defined, the clearance is a measure of how efficiently the substance is removed, as volume per time. A lower clearance goes with inefficient removal. With `Cc1c(CCOc2ccc(C(=O)O)cc2)c2cc(Cl)ccc2n1C(c1ccccc1)c1ccccc1`, the IC50 in data set [1] worked out at 7 µM; in data set [4], 30 µM; in data set [5] it was 3 µM; in [6], 34 µM. Besides, the results for the inhibition at 1.5 µM in data set [2], in data set [7] and in data set [8] were -8%, 81% and 96%, respectively. This compound also registered a bioavailability in data set [3] of 2.6%. The same compound returned a clearance in data set [9] of 0.192 L/h/kg.
As for `Cc1c(CCOc2ccc(C(=O)O)cn2)c2cc(Cl)ccc2n1C(c1ccccc1)c1ccccc1`, the IC50 entry is “Not Active” in data set [10] and 85 µM in [5].
